Assay [1] has as its target T1, GAL4-hRXRα (Homo sapiens, UniProt P19793).
T1 construct: expressed in transfected cells; host or cells: COS7
As to the kind of experiment: GAL4-hRXRα activation, transient transfection luciferase reporter in COS7 cells. In kind it is cell-based. The following applies: COS7, 100 μM through 0.137 μM. Here is the method: (§1) pCMX-Gal4, pCMX-Gal4-mPPARγ, and pCMX-Gal4-hRXRα were previously described ([Grün et al. 2006]). Transient transfections were performed in COS7 cells as described ([Chamorro-García et al. 2012]). Briefly, COS7 cells were seeded at 15,000 cells per well in 96-well tissue culture plates in 10% calf bovine serum. The following day, cells were transfected in Opti-MEM at ~ 90% confluency. One microgram of CMX-GAL4 effector plasmid was co-transfected with 5 μg tk-(MH100)4-luciferase reporter and 5 μg of CMX-β-galactosidase transfection control plasmids in Opti-MEM® using Lipofectamine® 2000 reagent (Invitrogen™ Life Technologies, Carlsbad, CA, USA), following the manufacturer’s recommended protocol. All chemicals were solvated in dimethyl sulfoxide (DMSO). After overnight incubation, the medium was replaced with Dulbecco’s Modified Eagle Medium (DMEM; HyClone, Logan, UT, USA), 10% resin charcoal stripped fetal bovine serum (FBS) plus ligands at concentrations indicated in the figure legends for an additional 24 hr. DMSO concentration was maintained at 0.05% across all chemical treatments. Cells were lysed and assayed for luciferase and β-galactosidase activity as previously described ([Forman et al. 1995]). All transfections were performed in triplicate and reproduced in multiple experiments. Data are reported as fold induction or reduction over vehicle ([…]) controls ± SEM (standard error of the mean) using standard propagation of error ([Bevington and Robinson 2003]). […] The EC50, EC10, IC50, and IC10 values from NCGC and ToxCast™ are reported from gain AC50 and AC10 values in the ToxCast™ 2014 release ([Filer et al. 2014]).
(§2) Figure 4 ToxPi Chemical Activity on PPARγ and RXRα. The ability of a graded dose series of ToxPi chemicals to activate (A) GAL4-mPPARγ or (B) GAL4-hRXRα was tested in transiently transfected COS7 cells. (A, B) Data points are averages of triplicate transfections (three biological replicates). […] ToxPi chemicals were tested in 3-fold serial dilutions from 100 μM through 0.137 μM, with the final data point being 0.05% DMSO. Data are depicted as fold induction over vehicle (0.05% DMSO) controls ± SEM. (A) Rosiglitazone serves as a positive control activator for GAL4-mPPARγ. (B) LG100268 (2-[1-(3,5,5,8,8-Pentamethyl-5,6,7,8-tetrahydro-2-naphthyl)cyclopropyl]pyridine-5-carboxylic acid) serves as a positive control activator for GAL4-hRXRα. (C) EC50 and EC10 values calculated from A and B are reported and compared to other assays (see Figure S1). ATG, Attagene GAL-PPARγ or GAL-RXRα activation assay; NCGC, GeneBLAzer® GAL-PPARγ or GAL-RXRα activation assays. Triphenyltin was previously published ([Kanayama et al. 2005]).
For orientation: In a reporter assay the amount or activity of a reporter protein is the signal.

In assay [2] the test system is PPARγ. The arrangement: method as in Filer et al. 2014. Conditions: ref Filer et al. 2014, cited from earlier work; for AC50: PPARγ, NA = not active, read-out: NCGC Antag. AC50, 2014 Release.
Assay [3] deals with T2, GAL4-mPPARγ (Mus musculus, UniProt P37238).
T2 construct: expressed in transfected cells; host or cells: COS7
As to the kind of experiment: GAL4-mPPARγ antagonism in competition with 50 nM rosiglitazone, transiently transfected COS7 cells. In kind it is cell-based. Here is the method: as §1
(§3) Figure 1 ToxCast™ Chemical Activity on PPARγ. The ability of a graded dose series of ToxCast™ chemicals to (A) activate or (B) antagonize GAL4-mPPARγ was tested in transiently transfected COS7 cells. (A, B) Data points are averages of triplicate transfections (three biological replicates). […] Data are depicted as (A) fold induction or (B) reduction over vehicle (0.05% DMSO) controls ± SEM. (A) ToxCast™ chemicals were tested in 3-fold serial dilutions from 100 μM through 0.137 μM, with the final data point being 0.05% DMSO. Rosiglitazone serves as a positive control activator. (B) ToxCast™ chemicals were tested in 3-fold serial dilutions from 100 μM, in competition with 50 nM rosiglitazone (Rosi). […] (C) EC50, EC10, IC50, and IC10 values calculated from A and B are reported and compared to commercial assays (see Figure S1). Note: ATG, Attagene GAL-PPARγ activation assay; NCGC, GeneBLAzer® agonist (EC values) or antagonist (IC values) assays. Triphenyltin was previously published ([Kanayama et al. 2005]).

Assay [4] deals with 3T3-L1 preadipocytes. As to the kind of experiment: 3T3-L1 adipogenesis assay (lipid accumulation, adipogenic gene expression). The following applies: 0.02-20 μM, 5 days after MDI induction. In kind it is cell-based. Here is the method:
3T3-L1 cells (ATCC) were maintained in high-glucose DMEM supplemented with 10% fetal bovine serum, 2 mM L-glutamine, 50 IU/mL penicillin, and 50 μg/mL streptomycin. A total of 2 × 10^4 cells per well were seeded in 12-well plates. After 48 hr, cells were exposed to the adipogenic cocktail MDI (500 μM isobutylmethylxanthine, 0.25 nM dexamethasone and 5 μg/mL insulin), 8 μg/mL biotin and 8 μg/mL pantothenate for 2 days. Induction media was removed and cells were exposed to test chemicals during 5 days, replacing the media every 2 days. Rosiglitazone (ROSI) and tributyltin (TBT) were used as positive controls at 100 nM and 50 nM final concentrations, respectively. All ToxCast™ chemicals were tested at 0.02, 0.2, 2, and 20 μM, and DMSO concentration was maintained at 0.1% across all treatments. If the chemical was toxic at 20 μM, we repeated the experiment at 10 μM.
Cells were either fixed in 3.7% formaldehyde in phosphate-buffered saline (PBS) for 30 min at room temperature (RT) for lipid quantitation, or homogenized in TriPure (Roche, Mannheim, Germany) for gene expression analysis. For lipid quantitation, fixed cells were washed twice with PBS and maintained in PBS overnight at 4°C to release residual phenol red. Background of cells were measured prior to staining. Cells were stained with 1 μg/mL Nile red (CAS No. 7385-67-3) (to detect lipid accumulation) and 1 μg/mL Hoechst 33342 (ThermoFisher Scientific) (to detect nuclei as a surrogate for cell number) in PBS for 15 min in the dark at RT and washed twice with PBS. […] Background values of Hoechst and Nile red were subtracted from the RFUs after staining and the ratio RFUNile Red:RFUHoechst was calculated. Data are represented as mean ± SEM. Total RNA was isolated using TriPure (Roche) as recommended by the manufacturer. Reverse transcription and quantitative real-time RT-PCR (QPCR) were performed using Transcriptor RT and SYBR® Green Master Mix (Roche). cDNA was quantitated in a LightCycler® 480 System (Roche Diagnostics, Basel, Switzerland) using primer sets listed in Table S4. Each primer set amplified a single band as determined by gel electrophoresis and melting curve analysis. QPCR data were analyzed using the 2^ΔΔCt method ([Livak and Schmittgen 2001]) relative to ribosomal protein 36b4, normalizing to 0.1% DMSO vehicle. Error bars represent the SEM from four to six biological replicates calculated using standard propagation of error ([Bevington and Robinson 2003]).

In assay [5] the test system is PPARγ. The following applies: cited from earlier work.
Assay [6] concerns the target T2, GAL4-mPPARγ. In words: GAL4-mPPARγ activation, transient transfection luciferase reporter in COS7 cells. Format: cell-based. Conditions: for Activation of GAL4-PPARγ (text): COS7, 100 μM through 0.137 μM; for Activation COS7 (result in words), ToxPi chemicals: PPARγ or RXRα activation assays (Table 2). As to the method: as §1, §3, §2
The test system of assay [7] is Human PPARγ. Conditions: cited from earlier work.
In assay [8] the test system is PPARγ. Conditions: ref Filer et al. 2014, cited from earlier work.
Assay [9] concerns PPRE. Further details: method as in Knudsen et al. 2011. Conditions: ToxCast Phase I 2011 release; NA = not active; ref Knudsen et al. 2011; read-out: ATGC PPRE AC50; cited from earlier work.
The test system of assay [10] is LXRβ. The arrangement: method as in Knudsen et al. 2011. The following applies: ToxCast Phase I 2011 release; NA = not active; ref Knudsen et al. 2011; read-out: ATGT LXRβ AC50; cited from earlier work.
The subject of assay [11] is LXRα. The arrangement: method as in Knudsen et al. 2011. The following applies: ToxCast Phase I 2011 release; NA = not active; ref Knudsen et al. 2011; read-out: ATGT LXRα AC50; cited from earlier work.
[12] abbreviates: PPARγ, NA = not active, ref Filer et al. 2014, read-out: ATG Agonist AC50, 2014 Release.
Setting [13] is: PPARγ, NA = not active, ref Knudsen et al. 2011, read-out: ATG Agonist AC50, 2011 Release.

These results are taken from publication PMC4977052, “On the Utility of ToxCast™ and ToxPi as Methods for Identifying New Obesogens” (Environmental Health Perspectives, 2016).

“Also recorded” adds a separate entry of the source. Read-outs that look alike come from different tables or passages of the source.

T2 sequence (P37238 with tags, fused parts or gaps limits assumed): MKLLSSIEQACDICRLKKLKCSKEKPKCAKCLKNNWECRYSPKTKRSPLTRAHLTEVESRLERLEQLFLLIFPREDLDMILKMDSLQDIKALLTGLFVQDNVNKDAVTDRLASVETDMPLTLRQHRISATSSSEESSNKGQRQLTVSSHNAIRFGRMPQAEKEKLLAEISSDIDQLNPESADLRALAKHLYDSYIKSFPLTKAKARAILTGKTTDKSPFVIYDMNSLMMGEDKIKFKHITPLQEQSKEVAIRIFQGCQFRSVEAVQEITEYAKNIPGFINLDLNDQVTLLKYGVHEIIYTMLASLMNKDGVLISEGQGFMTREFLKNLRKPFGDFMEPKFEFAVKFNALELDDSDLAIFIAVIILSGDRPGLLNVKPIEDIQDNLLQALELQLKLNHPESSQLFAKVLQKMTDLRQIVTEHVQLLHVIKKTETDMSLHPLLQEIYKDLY
T1 sequence (P19793 with tags, fused parts or gaps limits assumed): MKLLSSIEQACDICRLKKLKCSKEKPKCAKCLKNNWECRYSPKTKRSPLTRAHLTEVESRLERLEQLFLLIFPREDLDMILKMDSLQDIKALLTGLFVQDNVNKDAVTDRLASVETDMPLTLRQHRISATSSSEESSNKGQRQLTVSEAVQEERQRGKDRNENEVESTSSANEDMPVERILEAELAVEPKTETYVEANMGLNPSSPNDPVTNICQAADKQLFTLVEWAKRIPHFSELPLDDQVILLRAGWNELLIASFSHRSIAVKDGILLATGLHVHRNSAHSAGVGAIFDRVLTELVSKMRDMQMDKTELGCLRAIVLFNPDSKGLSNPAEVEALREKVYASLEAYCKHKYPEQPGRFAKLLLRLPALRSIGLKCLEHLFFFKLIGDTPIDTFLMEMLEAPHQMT

As for `O=C(O)COc1ccc(Cl)cc1Cl` [2,4-D, 2,4-dichlorophenoxyacetic acid], the “Activation of RXRα” value in [1] was “inactive”.

Turning to `CCOCN(C(=O)CCl)c1c(C)cccc1CC` [Acetochlor], in assay [2] (AC10, ToxCast 2014 release), the “PPARγ antagonists: IC10, NCGC” value is 420 nM. Also, the AC50 in assay [2] is 4500 nM; in assay [3] (Activation AC50 (PPARγ antagonists), Cos-7 transient transfection, competition with 50 nM rosiglitazone), 46700 nM; in [5] (setting [12]), 1500 nM; in assay [5] (setting [13]), 1700 nM. Besides, the IC50 – broadly, the concentration at which inhibition is half-maximal – in assay [2] (read-out: PPARγ antagonists: IC50, NCGC, gain AC50, ToxCast 2014 release) is 4500 nM; in assay [3] (COS7, in competition with 50 nM rosiglitazone) it was 46700 nM. In addition, the “Antagonism of PPARγ” value in [3] (COS7, competition against 50 nM rosiglitazone) is “weak antagonists”. Moreover, the “PPARγ antagonists: IC10, Fig 1B” value in assay [3] (COS7, in competition with 50 nM rosiglitazone, computed from IC50) turned out to be 9540 nM. In addition, in [3] (Cos-7 transient transfection, competition with 50 nM rosiglitazone), the “Activation COS7 (result in words): PPARγ antagonist” value was “PPARγ antagonist”. Moreover, the “Adipogenesis 3T3-L1 (result in words)” value in assay [4] is given as “Negative”. Besides, in assay [6], the “Activation of GAL4-PPARγ (text)” value is on record as “did not activate PPARγ”.

For the compound `CCNc1nc(Cl)nc(NC(C)C)n1` [Atrazine], the AC50 is 300 nM in assay [7] (direct binding, ToxCast 2014 release, ref Filer et al. 2014, read-out: NovaScreen AC50 (panel A)); 300 nM in assay [7] (direct binding, ToxCast 2014 release, ref Filer et al. 2014, read-out: NovaScreen AC50 (panel B)); 200 nM in assay [8] (ToxCast 2014 release, read-out: Tox21/NCGC AC50 (panel A)); 200 nM in [8] (ToxCast 2014 release, read-out: Tox21/NCGC AC50 (panel B)); 15200 nM in [5] (ToxCast 2014 release, ref Filer et al. 2014, read-out: Attagene AC50 (panel A, w/o Z-Score Correction ranking)); 15200 nM in [5] (ToxCast 2014 release, ref Filer et al. 2014, read-out: Attagene AC50 (panel B, with Z-Score Correction ranking)). Besides, in [1], the “Activation of RXRα” value is “inactive”. Moreover, the “Activation of GAL4-PPARγ (text)” value in assay [6] was “inactive”.

As to `N#Cc1c(Cl)c(Cl)c(Cl)c(C#N)c1Cl` [Chlorothalonil], the AC50 in assay [2] was 900 nM; in assay [7] (PPARγ direct binding, NA = not active, ref Filer et al. 2014, read-out: NVS Agonist AC50, 2014 Release), 460 nM; in [7] (PPARγ direct binding, NA = not active, ref Knudsen et al. 2011, read-out: NVS Agonist AC50, 2011 Release) it was 600 nM; in assay [8] (PPARγ, NA = not active, read-out: NCGC Agonist AC50, 2014 Release) it was 82800 nM. In addition, in assay [5] (PPARγ, NA = not active, ref Knudsen et al. 2011), the “ATG Agonist AC50, 2011 Release” value is “negative”. The “Activation COS7 (result in words), ToxCast PPARγ list” value in assay [6] was “Inactive”.

For `CC(C)(C)c1ccc(CSc2cnn(C(C)(C)C)c(=O)c2Cl)cc1` [Pyridaben], the AC50 is 1600 nM in assay [9]; 14000 nM in assay [5] (ToxCast Phase I 2011 release, NA = not active, ref Knudsen et al. 2011, read-out: ATGT PPARγ AC50); 3000 nM in [6]. The “Adipogenesis 3T3-L1 (result in words)” value in assay [4] is given as “strongly inhibited adipogenesis; also recorded: Inhibitor”. In addition, the “PPARγ agonists: EC10, ATG” value in [5] (AC10, ToxCast 2014 release, ref Filer et al. 2014) was 2570 nM. Also, the EC50 – broadly, the concentration needed to bring the measured effect to its halfway point – in assay [5] (gain AC50, ToxCast 2014 release, ref Filer et al. 2014, read-out: PPARγ agonists: EC50, ATG) is 10100 nM; in assay [6] it was 2980 nM. Besides, the “Activation of GAL4-PPARγ (text)” value in assay [6] is “activated PPARγ”. Moreover, the “PPARγ agonists: EC10, Fig 1A / Fig 4A” value in assay [6] (COS7, computed from EC50 in GraphPad Quick Calc) was 530 nM. Moreover, in assay [6] (Cos-7 transient transfection), the “Activation COS7 (result in words), ToxPi chemicals” value was “PPARγ activator”.

Regarding `CCc1nn(C)c(C(=O)NCc2ccc(C(C)(C)C)cc2)c1Cl` [Tebufenpyrad], the AC50 in [2] is 23100 nM; in assay [9], 830 nM; in assay [10] it was 460 nM; in assay [11], 360 nM; in assay [5] (setting [12]), 2600 nM; in assay [5] (setting [13]) it was 4900 nM. Also, in [4], the “Adipogenesis 3T3-L1 (result in words)” value was “Negative”. For the same compound, the “Activation COS7 (result in words), ToxCast PPARγ list” value in assay [6] (Cos-7 transient transfection, PPARγ activation or antagonism assays (Table 1, Table S6)) is reported as “Inactive”. The “Activation COS7 (result in words), ToxPi chemicals” value in assay [6] (Cos-7 transient transfection) is “Inactive”.
